Values joined by “and” are separate entries in the source; they are usually repeats but may differ in a detail not shown here. Identical values can stand only once. Like-named read-outs stand apart in the source and are kept apart here. Non-standard residues stand in square brackets, D forms with d. Residues, ends and D or L forms follow the SMILES beside them. No end group written: not given here. *: point of attachment. epicN = C-terminal cyclic asparagine (aspartimide), (R)-epimer, epimer of cN, O=C1C[C@@H](N*)C(=O)N1; Aspartimide = O=C1C[C@H](N*)C(=O)N1; Fmoc = O=C(OCC1c2ccccc2-c2ccccc21)*; X3 = O=C1CC[C@@H](N*)C(=O)N1; X1 = O=C1C[C@@H](N*)C(=O)N1; X2 = O=C1CC[C@H](N*)C(=O)N1
Experiments:
His6-CRBN/DDB1 = His6-CRBN/DDB1 (Homo sapiens, UniProt Q96SW2); test: TR-FRET ligand displacement assay (Thal-FITC tracer) with His6-CRBN/DDB1; settings: for pIC50 (M) / IC50: Thalidomide-FITC tracer 50 nM
[1] = molecular target: T1, GSPT1-GFP in HEK293T cells (Homo sapiens, UniProt P15170+Q96SW2); test: Degradation assay by flow cytometry, GSPT1-GFP; format: cell-based
T1 construct: expressed in transfected cells
Text: μg/mL), and 10% (v/v) FBS. […]
Degradation assay by flow cytometry
resuspension in DMEM +/– without phenol red. For IKZF1 degradation assay, propidium
equipped with a high throughput sampler.
using the BD FACSDiva software v9.1. For each experimental condition, the arithmetic mean
comparing compound treatment to DMSO control. […]
The same analysis was also applied to the (S)-
dependent activity, we adjusted the dose-response curves accordingly. Because dose-
within the error margins of the original curve.
squares F-test. This analysis determined whether there was a statistically significant
derived (S)-enantiomer. […]

[2] = Time-course study of racemization of lenalidomide, photo-lenalidomide and deuterated analogs in RPMI medium; format: physicochemical; settings: RPMI media, 37 °C, read-out: t50%ee (racemization half-life) (converted)
Description: Time-course Study of Racemization of Lenalidomide and Photo-lenalidomide in RPMI Medium To a 12-well plate, 25 μL of the indicated compound (4 mM stock solution in methanol) was added and methanol was air-dried. 1 mL of RPMI medium was added to each well containing the compound and the plate was incubated at 37 °C, 5% CO2. At the indicated time point, RPMI medium containing the compound was collected in a 5-mL Eppendorf tube, and 4 mL of HPLC-grade ethyl acetate was added to each tube. The tube was shaken for 2 min to extract the compounds into ethyl acetate. After two layers were separated, 3 mL was taken from the organic layer and filtered through sodium sulfate to remove residual water. To the same 5-mL Eppendorf tube, 3 mL of HPLC-grade ethyl acetate was added to repeat the extraction step.
The taken organic layers were combined and concentrated in vacuo to dryness. The sample was resuspended in HPLC grade isopropanol and analyzed with Waters Prep 150 LC System equipped with a chiral column with conditions indicated in the synthetic procedure.
The experimental data obtained were fitted to the following rate equation for racemization:1 […]
Where Y represents the ratio of the other enantiomer formed via racemization with constraints 2 of Top = 1 (100% conversion) and Bottom = 0 (0% conversion), Krac is the rate constant for the racemization, and t is incubation time. For the sake of symmetry, rate constants are the […]
In the analysis of the above curve fitting model, parameter estimation for Krac was carried out using nonlinear least squares regression, employing the “curve_fit” function from the SciPy library in Python. This approach yielded an estimated value for Krac. To ascertain the precision of this estimation and to quantify the associated uncertainty, the standard error of Krac was calculated based on the diagonal elements of the covariance matrix returned by the curve fitting procedure. Subsequently, to construct a 95% confidence interval for the extrapolated racemization curves, the t-distribution was employed, considering the degrees of freedom (the number of data points minus the number of fitted parameters). The critical t-value for a 95% confidence level was determined by using the “t.ppf” function from the SciPy library in Python, and the confidence interval for Krac was then derived as the following equation: […]
Where tcritical is the critical t-value for a 95% confidence level and SE(Krac) is the standard error […]
The upper and lower bounds of this interval were further utilized to generate the corresponding confidence bounds for the curve, offering a visual representation of the uncertainty inherent in […]

His6-CRBN/DDB1 complex [3] = molecular target: His6-CRBN/DDB1 complex (UniProt Q96SW2)
His6-CRBN/DDB1 complex [4] = molecular target: T2, His6-CRBN/DDB1 complex (UniProt Q96SW2 1-442; Q16531 1-1140); test: AlphaScreen or HTRF; competitive TR-FRET ligand displacement; peptide titrated against recombinant His6-CRBN/DDB1 (2.5 nM) with the tracer Thalidomide-FITC (50 nM); KD from IC50 by the correction factor 1.426 (tracer KD 2-site 117.3 nM); settings: both partners purified
T2 construct: cereblon (CRBN), E3 ligase substrate adapter; DDB1, in complex with His6-CRBN; Column 'Protein' of S0003 says only 'CRBN'; the text and legends name His6-CRBN/DDB1 for this TR-FRET assay; also called cereblon; source: recombinant

[5] = KD, competitive TR-FRET, His6-CRBN/DDB1
[6] = HEK293T, 3 h, flow cytometry, read-out: DC50
[7] = KD (M), Protein CRBN, from IC50 with Correction Factor 1.43
[8] = IC50 (M), Protein CRBN, protein […]
[9] = IC50 (nM), Protein CRBN, protein […]
[10] = KD (nM), Protein CRBN, from IC50 with Correction Factor 1.43
[11] = Protein CRBN, from IC50 with Correction Factor 1.43

## Cc1ccc(NC(=O)NCc2ccc3c(c2)CN(C2CCC(=O)NC2=O)C3=O)cc1Cl (racemic) [rac-CC885, CC885, reference compound]
His6-CRBN/DDB1; [5]
  Kd: ≤ 4e-09 M

## [2H]C1([2H])CC([2H])(N2Cc3cc(CNC(=O)Nc4ccc(C)c(Cl)c4)ccc3C2=O)C(=O)NC1=O (racemic) [rac-CC885-d3]
[1]; [6]
  DC50: ≤ 0.002 µM
His6-CRBN/DDB1; [5]
  Kd: ≤ 4e-09 M

## Cc1ccc(NC(=O)NCc2ccc3c(c2)CN(C2CCC(=O)NC2=O)C3=O)cc1Cl (racemic) [rac-CC-885]
His6-CRBN/DDB1; Protein CRBN
  pIC50 (M): 8.29 M

## [2H]C1([2H])CC([2H])(N2Cc3c(N)cccc3C2=O)C(=O)NC1=O (racemic) [rac-Len-d3]
[2]
  half-life at 100 µM: 24 to 25 h

## [2H]C1([2H])C[C@@]([2H])(N2Cc3cc(CNC(=O)Nc4ccc(C)c(Cl)c4)ccc3C2=O)C(=O)NC1=O [(R)-CC885-d3]
[1]; [6]
  DC50: 0.025 µM
His6-CRBN/DDB1; [5]
  Kd: 4.01e-07 M

## Nc1cccc2c1CN([C@@H]1CCC(=O)NC1=O)C2=O [(R)-lenalidomide]
[2]
  half-life at 100 µM: 4.3 h

## [2H]C1([2H])C[C@]([2H])(N2Cc3cc(CNC(=O)Nc4ccc(C)c(Cl)c4)ccc3C2=O)C(=O)NC1=O [(S)-CC885-d3]
[1]; (S) in the (S)-sample, read-out: predicted DC50 of the (S)-stereoisomer, adjusted for (S)-stereoisomer
  DC50: 0.0012 ± 0.0003 µM
[1]; [6]
  DC50: ≤ 0.002 µM
His6-CRBN/DDB1; [5]
  Kd: ≤ 3e-09 M
His6-CRBN/DDB1; predicted KD of the (S)-stereoisomer, ligand displacement assay adjusted for (S)-stereoisomer, (S)-stereoisomer in the (S)-sample, corrected for racemization
  Kd: 3.2e-09 ± 1e-10 M

## Nc1cccc2c1CN([C@H]1CCC(=O)NC1=O)C2=O [(S)-lenalidomide]
[2]
  half-life at 100 µM: 4.2 h

## O=C(CNC(=O)CNC(=O)OCC1c2ccccc2-c2ccccc21)NCC(=O)N[C@@H](Cc1ccccc1)C(=O)N[C@H]1CC(=O)NC1=O [Fmoc-GGGFcN] (Fmoc-GGGF-Aspartimide)
His6-CRBN/DDB1; [7]
  Kd: 3.67e-08 M

## O=C(CNC(=O)CNC(=O)OCC1c2ccccc2-c2ccccc21)NCC(=O)N[C@@H](Cc1ccccc1)C(=O)N[C@H]1CCC(=O)NC1=O [Fmoc-GGGFcQ] (Fmoc-GGGF-X2)
His6-CRBN/DDB1; [8]
  IC50: 1.28e-07 M
His6-CRBN/DDB1; [7]
  Kd: 8.94e-08 M

## O=C(CNC(=O)CNC(=O)OCC1c2ccccc2-c2ccccc21)NCC(=O)N[C@@H](Cc1ccccc1)C(=O)N[C@@H]1CC(=O)NC1=O [Fmoc-GGGFepicN] (Fmoc-GGGF-X1)
His6-CRBN/DDB1; [9]
  IC50: 4.08e-06 M
His6-CRBN/DDB1; [7]
  Kd: 2.86e-06 M
His6-CRBN/DDB1; [5]
  Kd: 2.86e-06 M and 2.87e-06 M
His6-CRBN/DDB1; pIC50 (M), Protein CRBN
  IC50: 4.07e-06 M
His6-CRBN/DDB1; pKD (M), Protein CRBN, from IC50 with Correction Factor 1.43
  Kd: 2.88e-06 M

## O=C(CNC(=O)CNC(=O)OCC1c2ccccc2-c2ccccc21)NCC(=O)N[C@@H](Cc1ccccc1)C(=O)N[C@@H]1CCC(=O)NC1=O [Fmoc-GGGFepicQ] (Fmoc-GGGF-X3)
His6-CRBN/DDB1; [8]
  IC50: 7.69e-07 M
His6-CRBN/DDB1; [7]
  Kd: 5.39e-07 M

## C[C@H](NC(=O)CNC(=O)CNC(=O)CN)C(=O)N[C@H]1CC(=O)NC1=O [GGGAcN] (H-GGGA-Aspartimide)
His6-CRBN/DDB1; [8]
  IC50: 3.44e-07 M
His6-CRBN/DDB1; [7]
  Kd: 2.42e-07 M
His6-CRBN/DDB1; [10]
  Kd: 2.42e-07 M

## C[C@H](NC(=O)CNC(=O)CNC(=O)CN)C(=O)N[C@@H]1CC(=O)NC1=O [GGGAepicN] (H-GGGA-X1)
His6-CRBN/DDB1; [8]
  IC50: 1.12e-05 M

## Cc1sc2c(c1C)C(c1ccc(Cl)cc1)=N[C@@H](CC(=O)NCCCCCCCCC(=O)N[C@@H](Cc1ccccc1)C(=O)N[C@H]1CC(=O)NC1=O)c1nnc(C)n1-2 [JQ1-FcN]
His6-CRBN/DDB1; Protein CRBN
  pIC50 (M): 7.42 M
His6-CRBN/DDB1; Protein CRBN, protein […]
  IC50: 3.8e-08 M
His6-CRBN/DDB1; [11]
  Kd: 2.66e-08 M and 2.7e-08 M
  pKD (M): 7.57 M

## Cc1sc2c(c1C)C(c1ccc(Cl)cc1)=N[C@@H](CC(=O)NCCCCCCCCC(=O)N[C@@H](Cc1ccccc1)C(=O)N[C@H]1CCC(=O)NC1=O)c1nnc(C)n1-2 [JQ1-FcQ]
His6-CRBN/DDB1; Protein CRBN
  pIC50 (M): 6.86 M
His6-CRBN/DDB1; Protein CRBN, protein […]
  IC50: 1.38e-07 M
His6-CRBN/DDB1; [11]
  Kd: 9.65e-08 M and 9.7e-08 M
  pKD (M): 7.02 M

## CN1C(=O)CCC(N2Cc3c(N)cccc3C2=O)C1=O (stereo not drawn) [Me-Len, reference compound]
His6-CRBN/DDB1; [8]
  IC50: 1.53e-05 M
His6-CRBN/DDB1; [9]
  IC50: 1.53e-05 M
His6-CRBN/DDB1; [7]
  Kd: 1.07e-05 M
His6-CRBN/DDB1; [10]
  Kd: 1.07e-05 M
His6-CRBN/DDB1; [5]
  Kd: 1.07e-05 M

## Nc1cccc2c1CN(C1CCC(=O)NC1=O)C2=O (stereo not drawn) [lenalidomide]
[2]
  half-life at 100 µM: 4.2 to 4.3 h

## GFP-FcN
His6-CRBN/DDB1 complex [3]
  in vitro monoubiquitination with K0-ubiquitin mediated by the CRL4^CRBN complex, fold over methylated GFP-FcQ (GFP-FcQMe): 7.1 fold

## GFP-FcQ
His6-CRBN/DDB1 complex [3]
  in vitro monoubiquitination with K0-ubiquitin mediated by the CRL4^CRBN complex, fold over methylated GFP-FcQ (GFP-FcQMe): 4.8 fold

## GFP-FepicN
His6-CRBN/DDB1 complex [3]
  in vitro monoubiquitination with K0-ubiquitin mediated by the CRL4^CRBN complex, fold over methylated GFP-FcQ (GFP-FcQMe); did not reach statistical significance: 1.3 fold

## GFP-FepicQ
His6-CRBN/DDB1 complex [3]
  in vitro monoubiquitination with K0-ubiquitin mediated by the CRL4^CRBN complex, fold over methylated GFP-FcQ (GFP-FcQMe): 2.4 fold

B1: Fmoc-GGGFcN (peptide)
peptide: Fmoc-GGGF[Aspartimide]
SMILES: O=C(CNC(=O)CNC(=O)OCC1c2ccccc2-c2ccccc21)NCC(=O)N[C@@H](Cc1ccccc1)C(=O)N[C@H]1CC(=O)NC1=O
notes: pentapeptide; the C-terminal N is cyclised to the C-terminal cyclic imide (aspartimide); source: synthetic peptide
His6-CRBN/DDB1 complex [4]
  IC50: 0.0524 µM

B2: GGGAcN (peptide)
peptide: GGGA[Aspartimide]
notes: pentapeptide; the C-terminal N is cyclised to the C-terminal cyclic imide (aspartimide); The sheet prints no Fmoc for this peptide; also called pentapeptide bearing AcN; source: synthetic peptide
His6-CRBN/DDB1 complex [4]
  Kd: 0.242 µM

B3: GGGAepicN (peptide)
peptide: GGGA[epicN]
notes: pentapeptide; the C-terminal N is cyclised to the aspartimide and is the epimer of that in GGGAcN; The sheet prints no Fmoc for this peptide; also called pentapeptide bearing AepicN; source: synthetic peptide
His6-CRBN/DDB1 complex [4]
  Kd: 7.85 µM

Reference: publication PMC12117711, “The contribution of cyclic imide stereoisomers on cereblon-dependent activity†” (Chemical Science, 2025)
